Assay results taken from patent US11518758B2, “Heteroarylaminopyrimidine amide autophagy inhibitors and methods of use thereof” (Deciphera Pharmaceuticals, LLC, priority 2019, dated 2022).

Assays:
[1] = tested on: phospho-Serine 318 ATG13 (pATG13), ULK kinase substrate, in A549 (KRAS mutant) cells; test: pATG13 levels of mutant KRas A549 cells after treatment with ULK inhibitors in combination with trametinib (ELISA); type: cell-based, human; conditions: with 250 nM trametinib
Outline: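 A549 cells grown overnight were treated overnight at 37 °C with a dose response of test compound plus 250 nM trametinib (final) or DMSO. Lysates were assayed by sandwich ELISA, with total ATG13 capture and biotinylated pS318-ATG13 detection read at 450 nm minus 540 nm, giving % phosphorylation against control and IC50.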

ULK2 kinase = target: T1, ULK2 kinase (Homo sapiens, UniProt Q8IYT8); test: Biochemical assay for ULK2 (coupled pyruvate kinase/lactate dehydrogenase assay); conditions: 9.7 nM ULK2 (Eurofins), myelin basic protein, 1 mM ATP; read-out: ULK2.2
T1 construct: purchased Eurofins 14-772
T1 sequence (Q8IYT8 with tags, fused parts or gaps): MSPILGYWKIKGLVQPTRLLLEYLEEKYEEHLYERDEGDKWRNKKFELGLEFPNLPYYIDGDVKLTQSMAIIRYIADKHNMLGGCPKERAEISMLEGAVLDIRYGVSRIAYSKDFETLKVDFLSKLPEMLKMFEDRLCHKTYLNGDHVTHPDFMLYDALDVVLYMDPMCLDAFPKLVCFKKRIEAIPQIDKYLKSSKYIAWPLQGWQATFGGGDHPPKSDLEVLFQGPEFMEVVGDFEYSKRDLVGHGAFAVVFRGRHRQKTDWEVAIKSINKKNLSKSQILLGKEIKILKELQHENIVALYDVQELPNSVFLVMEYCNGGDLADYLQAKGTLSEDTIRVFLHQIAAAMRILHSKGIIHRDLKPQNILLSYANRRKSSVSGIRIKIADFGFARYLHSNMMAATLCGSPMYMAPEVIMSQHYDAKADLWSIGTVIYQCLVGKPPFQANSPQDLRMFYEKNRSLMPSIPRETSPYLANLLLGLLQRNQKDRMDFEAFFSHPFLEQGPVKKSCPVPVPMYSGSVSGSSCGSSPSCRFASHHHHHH
Procedure: Example 176. Biochemical Assay for ULK2
Activity of ULK2 kinase was determined spectroscopically using a coupled pyruvate kinase/lactate dehydrogenase assay that continuously monitors the ATP hydrolysis-dependent oxidation of NADH (e.g., Schindler et al. Science (2000) 289: 1938-1942). Assays were conducted in 384-well plates (100 uL final volume) using 9.7 nM ULK2 (Eurofins CAT #14-772), 0.25 mg/mL myelin basic protein, 1.5 units pyruvate kinase, 2.1 units lactate dehydrogenase, 1 mM phosphoenol pyruvate, 0.28 mM NADH and 1 mM ATP in assay buffer (100 mM Tris, pH 7.5, 15 mM MgCl2, 0.5 mM DTT, 0.1% octyl-glucoside, 0.002% (w/v) BSA, and 0.002% Triton X-100). Inhibition of ULK2 was measured by adding serial diluted test compound (final assay concentration of 1% DMSO). A decrease in absorption at 340 nm was monitored continuously for 6 hours at 30° C. on a multi-mode microplate reader (BioTek). The reaction rate was calculated using the 2-3 h time frame. The reaction rate at each concentration of compound was converted to percent inhibition using controls (i.e. reaction with no test compound and reaction with a known inhibitor) and IC50 values were calculated by fitting a four-parameter sigmoidal curve to the data using Prism (GraphPad software).

ULK1 kinase = target: T2, ULK1 kinase (Homo sapiens, UniProt O75385); test: Biochemical assay for ULK1.2 (coupled pyruvate kinase/lactate dehydrogenase assay); conditions: 19 nM ULK1 (Eurofins), myelin basic protein, 1 mM ATP
T2 construct: purchased Eurofins 14-959
T2 sequence (O75385 with tags, fused parts or gaps): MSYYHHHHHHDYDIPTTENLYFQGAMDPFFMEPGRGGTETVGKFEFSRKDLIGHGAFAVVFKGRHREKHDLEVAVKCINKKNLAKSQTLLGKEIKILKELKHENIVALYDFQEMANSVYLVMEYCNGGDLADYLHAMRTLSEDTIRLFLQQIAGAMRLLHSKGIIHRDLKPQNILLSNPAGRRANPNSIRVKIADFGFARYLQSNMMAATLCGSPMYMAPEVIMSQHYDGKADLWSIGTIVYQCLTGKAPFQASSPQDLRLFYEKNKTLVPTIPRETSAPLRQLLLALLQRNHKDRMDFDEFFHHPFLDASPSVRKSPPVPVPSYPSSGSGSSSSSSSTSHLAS
Outline: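 NADH-coupled PK/LDH read-out at 340 nm, run with 19 nM ULK1, 0.25 mg/mL myelin basic protein and 1 mM ATP. Buffer was 100 mM Tris pH 7.5 with 15 mM MgCl2 and 1% DMSO final. Monitoring was continuous for 6 hours at 30° C; rates from the 2-3 h window were converted to percent inhibition and fitted to a four-parameter curve for IC50.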

[2] = tested on: phospho-Serine 318 ATG13 (pATG13) in HCT-116 cells; test: pATG13 levels of mutant KRas HCT-116 cells after treatment with ULK inhibitors in combination with trametinib (ELISA); type: cell-based, human
Procedure: Example 179. pATG13 Levels of Mutant KRas HCT-116 Cells after Treatment with ULK Inhibitors in Combination with Trametinib
(§1) HCT-116 human colon cancer cells (10000 cells/well) were added to a 384-well tissue-culture treated plate in 50 μL of pre-warmed DMEM medium supplemented with 10% characterized fetal bovine serum (Invitrogen, Carlsbad, Calif.), 100 units/mL penicillin G, and 100 μg/mL streptomycin and allowed to grow overnight at 37° C., 5% CO2, and 95% humidity. The following day, 10 μL of media containing trametinib or DMSO as a control was added to wells. The final concentration of trametinib in wells was 250 nM. A dose response of a test compound (0.6 μL per well) was added. DMSO (0.6 μL) was added to control wells. The plate was briefly shaken to mix wells and then incubated at 37° C. overnight. The next day, the media was aspirated and cells were washed with Dulbecco's Phosphate Buffered Saline (Gibco). Cells were lysed using MPER lysis buffer (Pierce, Rockford, Ill.) containing Halt Phosphatase and Protease Inhibitors (Pierce, Rockford, Ill.) and Phosphatase inhibitor cocktail 2 (Sigma, St. Louis, Mo.) at 4° C. for 10 minutes with shaking.
(§2) Cellular levels of phospho-Serine 318 ATG13 (pATG13) were measured via an ELISA method. Total ATG13 Antibody (Cell Signaling Cat #13273) was used to coat the wells. The plate was incubated at 4° C. overnight and washed with ELISA wash buffer (Biolegend Cat #421601). The wells were then blocked with assay diluent (Biolegend Cat #421203) for 1 hour at room temperature. Plate wells were washed with ELISA wash buffer. Cell lysate was added to wells and incubated at room temperature for 2 hours. Plate wells were washed with ELISA wash buffer. Biotinylated pS318-ATG13 antibody (Rockland Immunochemicals Cat #600-401-C49) was diluted in assay diluent and added to each well and incubated at room temperature for 1 hour. Plate wells were washed with ELISA wash buffer. Streptavidin linked to horseradish peroxidase (Thermo Fisher Cat #21140) was diluted in assay diluent and added to each well and incubated at room temperature for 1 hour. Plate wells were washed with ELISA wash buffer. High sensitivity TMB substrate (Biolegend Cat #421101) was added to each well and incubated at room temperature for 20 minutes. The reaction was stopped with 2N Sulfuric Acid. The plate was analyzed at on a plate reader measuring absorbance at 450 nm and 540 nm (background). Signal was calculated by first subtracting the background absorbance at 540 nm from the absorbance at 450 nm for each well. Next, the background corrected absorbance at 450 nm from blank wells was subtracted from test wells. Data was compared to control wells to determine % ATG13 phosphorylation. GraphPad Prism was used to calculate IC50 values.

[3] = tested on: phospho-Serine 318 ATG13 (pATG13) in MiaPaCa-2 cells; test: pATG13 levels of mutant KRas MiaPaCa-2 cells after treatment with ULK inhibitors in combination with trametinib (ELISA); type: cell-based, human
Procedure: Example 178. pATG13 Levels of Mutant KRas MiaPaCa-2 Cells after Treatment with ULK Inhibitors in Combination with Trametinib
as §1, with “MiaPaCa-2” for “HCT-116”, “pancreatic” for “colon”, “G,” for “G, and”, “streptomycin, and 2.5% Horse Serum” for “streptomycin”
as §2

| Structure (SMILES) | IC50 [1] [nM] | IC50 (ULK2 kinase) [nM] | IC50 (ULK1 kinase) [nM] | IC50 [2] [nM] | IC50 [3] [nM] |
| --- | --- | --- | --- | --- | --- |
| O=C1CCCCN1CCCNc1nc(Nc2cnn(C3CCNCC3)c2)ncc1C(F)(F)F [Example 7] | 10 to 100 | 1 to 25 | 1 to 25 | 100 to 300 |  |
| Cc1nn(C2CCNCC2)cc1Nc1ncc(C(F)(F)F)c(NCCCN2CCCCC2=O)n1 [Example 14] | 300 to 600 | 1 to 25 | 1 to 25 | 10 to 100 |  |
| CCc1nn(C2CCNCC2)cc1Nc1ncc(C(F)(F)F)c(NCCCN2CCCCC2=O)n1 [Example 40] | 300 to 600 |  | 1 to 25 | 10 to 100 | 10 to 100 |
| CCc1nn(C2CCN(C)CC2)cc1Nc1ncc(C(F)(F)F)c(NCCCN2CCCOCC2=O)n1 [Example 109] | 100 to 300 |  | 25 to 100 | 10 to 100 | 100 to 300 |
